For the assay, the target named is T1, sortase A (SrtA) (Staphylococcus aureus, UniProt Q2FV99).
T1 construct: recombinant SrtAΔN59
Kind of assay: FRET peptide-cleavage assay with purified recombinant SrtA; supported by fluorescence quenching (Ka = […] L/mol) and reversibility by dilution. The class given is biochemical.

Experimental findings from article PMC12660299, “Isoliquiritigenin Attenuates Staphylococcus aureus Adhesion and Invasion to Counteract Staphylococcus aureus Pathogenicity and Infection” (Frontiers in Cellular and Infection Microbiology, 2025) are described below.

pIC50: −log10 of the molar value.

T1 sequence (Q2FV99 60-206): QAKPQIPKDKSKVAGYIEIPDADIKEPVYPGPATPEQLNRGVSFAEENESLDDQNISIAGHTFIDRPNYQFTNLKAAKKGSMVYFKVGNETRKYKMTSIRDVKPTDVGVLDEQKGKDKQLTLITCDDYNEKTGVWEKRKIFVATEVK

For orientation: pIC50 means the negative decadic logarithm of the IC50, by convention in mol/L. With `O=C(/C=C/c1ccc(O)cc1)c1ccc(O)cc1O` [ISL, isoliquiritigenin], the pIC50 was 4.28.
